Values after ≈ are worked out from the molar mass of the structure shown.
What was measured:
[1] = test system: reverse transcriptase (RNA-directed DNA polymerase); assay: Reverse transcriptase (RNA-directed DNA polymerase) inhibition; type: biochemical; settings: concentration not given
From the text: The assay and work-up conditions for reverse transcriptase analysis were essentially those described by Brockman, et al., (Nature, 230, 249 (1971)), except for eliminating the phosphate from the washing solution (10% trichloroacetic acid).

[2] = biological target: E. coli RNA polymerase (Escherichia coli, UniProt P0A8V2); assay: Bacterial RNA polymerase inhibition; type: biochemical
Chain of E. coli RNA polymerase (P0A8V2 whole entry): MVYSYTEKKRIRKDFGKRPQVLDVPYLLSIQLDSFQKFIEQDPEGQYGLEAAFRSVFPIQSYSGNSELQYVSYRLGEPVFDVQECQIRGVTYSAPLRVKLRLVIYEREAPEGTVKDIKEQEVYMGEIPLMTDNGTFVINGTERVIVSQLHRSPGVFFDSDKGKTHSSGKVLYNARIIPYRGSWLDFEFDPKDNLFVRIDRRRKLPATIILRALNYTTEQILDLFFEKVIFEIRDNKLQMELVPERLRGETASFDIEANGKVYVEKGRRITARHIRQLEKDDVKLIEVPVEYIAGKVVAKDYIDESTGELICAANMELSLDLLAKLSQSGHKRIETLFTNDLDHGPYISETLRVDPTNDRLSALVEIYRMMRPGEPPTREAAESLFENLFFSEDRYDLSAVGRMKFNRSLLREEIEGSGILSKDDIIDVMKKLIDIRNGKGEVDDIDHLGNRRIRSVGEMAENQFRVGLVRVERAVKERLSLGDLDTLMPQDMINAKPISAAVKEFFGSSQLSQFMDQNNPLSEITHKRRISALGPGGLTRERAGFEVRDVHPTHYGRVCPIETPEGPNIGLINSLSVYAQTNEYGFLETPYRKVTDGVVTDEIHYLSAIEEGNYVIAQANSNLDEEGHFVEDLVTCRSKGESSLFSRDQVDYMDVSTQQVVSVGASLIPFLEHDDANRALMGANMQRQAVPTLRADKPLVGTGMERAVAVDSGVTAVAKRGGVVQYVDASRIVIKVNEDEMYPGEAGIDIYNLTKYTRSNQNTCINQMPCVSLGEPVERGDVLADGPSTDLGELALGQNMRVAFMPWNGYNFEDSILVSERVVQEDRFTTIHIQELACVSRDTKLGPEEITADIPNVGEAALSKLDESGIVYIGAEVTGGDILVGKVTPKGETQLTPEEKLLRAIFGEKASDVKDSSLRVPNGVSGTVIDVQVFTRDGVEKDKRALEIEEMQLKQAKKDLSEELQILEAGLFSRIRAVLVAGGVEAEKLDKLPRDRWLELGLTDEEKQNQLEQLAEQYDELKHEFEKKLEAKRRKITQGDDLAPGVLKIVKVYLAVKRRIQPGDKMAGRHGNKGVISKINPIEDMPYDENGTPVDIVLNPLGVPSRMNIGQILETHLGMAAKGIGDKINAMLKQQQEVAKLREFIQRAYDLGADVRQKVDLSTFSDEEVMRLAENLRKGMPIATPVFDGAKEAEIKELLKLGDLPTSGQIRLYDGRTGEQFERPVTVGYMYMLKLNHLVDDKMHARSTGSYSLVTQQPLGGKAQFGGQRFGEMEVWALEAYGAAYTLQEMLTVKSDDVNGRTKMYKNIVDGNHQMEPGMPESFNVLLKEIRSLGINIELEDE
Chain of E. coli RNA polymerase (P0A8T7 whole entry partner): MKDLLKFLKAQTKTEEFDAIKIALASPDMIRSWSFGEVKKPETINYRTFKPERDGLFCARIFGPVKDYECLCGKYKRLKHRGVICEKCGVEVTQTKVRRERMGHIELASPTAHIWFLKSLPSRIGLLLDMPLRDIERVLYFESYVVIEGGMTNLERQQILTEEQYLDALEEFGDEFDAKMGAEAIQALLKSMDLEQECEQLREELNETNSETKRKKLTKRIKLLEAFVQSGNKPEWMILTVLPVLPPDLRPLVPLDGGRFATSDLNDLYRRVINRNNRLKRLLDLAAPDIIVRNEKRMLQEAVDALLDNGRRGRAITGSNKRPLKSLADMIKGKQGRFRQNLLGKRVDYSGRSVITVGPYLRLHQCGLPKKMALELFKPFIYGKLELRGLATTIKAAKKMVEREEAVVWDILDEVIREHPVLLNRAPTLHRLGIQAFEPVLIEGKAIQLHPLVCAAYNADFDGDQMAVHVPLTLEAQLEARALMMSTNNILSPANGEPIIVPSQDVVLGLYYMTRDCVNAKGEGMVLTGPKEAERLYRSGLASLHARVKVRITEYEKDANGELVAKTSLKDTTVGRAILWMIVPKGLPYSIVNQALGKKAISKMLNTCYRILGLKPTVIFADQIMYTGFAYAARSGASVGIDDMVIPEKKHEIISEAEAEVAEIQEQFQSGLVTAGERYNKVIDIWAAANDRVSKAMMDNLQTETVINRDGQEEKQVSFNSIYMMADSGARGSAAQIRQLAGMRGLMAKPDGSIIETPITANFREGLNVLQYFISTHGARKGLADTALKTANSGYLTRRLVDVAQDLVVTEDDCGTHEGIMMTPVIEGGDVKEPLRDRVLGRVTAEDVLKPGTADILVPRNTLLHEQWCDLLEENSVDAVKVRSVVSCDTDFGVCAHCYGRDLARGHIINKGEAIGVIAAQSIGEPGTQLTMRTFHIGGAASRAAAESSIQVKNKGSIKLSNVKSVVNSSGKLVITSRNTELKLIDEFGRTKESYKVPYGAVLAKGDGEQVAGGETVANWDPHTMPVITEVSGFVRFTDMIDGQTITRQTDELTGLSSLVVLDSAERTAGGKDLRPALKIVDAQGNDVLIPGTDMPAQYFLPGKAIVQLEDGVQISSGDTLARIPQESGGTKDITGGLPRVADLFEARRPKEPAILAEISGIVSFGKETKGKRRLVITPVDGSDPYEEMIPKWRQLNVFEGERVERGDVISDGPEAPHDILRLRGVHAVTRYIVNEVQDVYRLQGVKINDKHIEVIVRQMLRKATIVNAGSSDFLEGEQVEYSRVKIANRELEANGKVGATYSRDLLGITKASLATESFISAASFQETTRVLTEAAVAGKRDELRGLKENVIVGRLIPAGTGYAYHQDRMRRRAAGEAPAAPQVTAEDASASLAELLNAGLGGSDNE
Chain of E. coli RNA polymerase (P0A7Z4 whole entry partner): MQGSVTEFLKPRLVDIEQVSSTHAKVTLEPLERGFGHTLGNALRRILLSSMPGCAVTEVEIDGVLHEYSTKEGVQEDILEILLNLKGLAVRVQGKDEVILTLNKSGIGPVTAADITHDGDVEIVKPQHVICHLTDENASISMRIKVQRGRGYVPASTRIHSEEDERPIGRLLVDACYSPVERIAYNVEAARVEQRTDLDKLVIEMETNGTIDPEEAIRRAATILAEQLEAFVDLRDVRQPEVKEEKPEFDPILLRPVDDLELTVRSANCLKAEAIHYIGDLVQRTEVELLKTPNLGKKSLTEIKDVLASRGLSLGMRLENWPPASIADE
Chain of E. coli RNA polymerase (P0A800 2-91 partner limits assumed): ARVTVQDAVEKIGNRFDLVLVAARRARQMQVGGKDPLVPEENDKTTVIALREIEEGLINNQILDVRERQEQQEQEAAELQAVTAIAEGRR
Description: The assay for bacterial RNA polymerase followed the procedure of Reusser (J. Bacterial., 105, 580 (1971)). Assay mixtures were prepared containing in a total volume of 0.25 ml.: Tris-hydrochloride buffer, pH 7.9, 5 μmoles; MgCl2, 1 μmole; mercaptoethanol, 3 μmoles; MnCl2, 0.25 μmole; guanosine triphosphate, cytidine triphosphate, uridine triphosphate, 0.1 μmole each; adenosine triphosphate 8-14C, 0.1 μmole containing 0.05 μCi; dAT, 0.2 units; polymerase, ~35 μg. The reaction mixtures were incubated at 30° C for 15 min.

[3] = test system: S. lutea; assay: S. lutea bacterial inhibition (MIC, broth dilution); type: cell-based; settings: Micrococcus luteus; 37°, 16-18 hours
Description: The assay for S. lutea inhibition was as follows. Water-soluble preparations were dissolved in brain heart infusion broth (Difco) to 1 mg./ml. Water-insoluble preparations were dissolved (or suspended) in dimethylformamide to 10 mg./ml. and diluted with brain heart broth to 1 mg./ml. Two-fold serial dilutions were made with broth starting with 1 mg./ml. with final volumes of 01. ml. per dilution. Overnight bacterial cultures were diluted 1:20,000 with brain heart and 0.1 ml. of diluted culture was added to each dilution of antibiotic (final total volume was 0.2 ml.). This was all done in plastic microtest plates (Microtest II Tissue Culture Plate, Bioquest). The plates were incubated at 37° for 16-18 hours and the minimum inhibitory concentrations (MIC) were recorded as the smallest concentration in which no visible growth occurred.

[4] = test system: AKR cells; assay: AKR growth inhibition (AKR cells in culture); type: cell-based; settings: 37° C, 3 days, concentration not given
Description: The assay for inhibition of AKR cells in culture was as follows. Four ml. of cells (ca. 1×10^4 cells/ml.) were pipetted into sterilized plastic culture tubes with screw caps (16×125 mm.; Falcon Plastics, Oxnard, California). The experiment was initiated by adding 1.0 ml. of medium or drug at different concentrations and incubating at 37° C for 3 days. Cell growth was determined twice a day for 3 days. The percent inhibition was calculated from the controls (no drug).

[5] = test system: B. subtilis; assay: B. subtilis bacterial inhibition (paper disc, agar plate); settings: Bacillus subtilis, read-out: Zone (mm.) inhibition
Description: The assay for B. subtilis bacterial inhibition was obtained on plates with B. subtilis UC 564 spores in agar with the following composition per liter:
After autoclaving, 10 ml. of 20% glucose was added. The seeding rate was approximately 10^9 spores per liter. Test solutions were applied to 1/2-inch paper discs (Schleicher & Schuell 740E) with 0.08 ml. per disc.

[6] = test system: DNA-directed DNA polymerase; assay: DNA-directed DNA polymerase inhibition; type: biochemical; settings: concentration not given
Description: The assay and work-up conditions for DNA polymerase were essentially those described by Magee (Virology, 17, 604 (1962)). The reaction mixture contained […]: potassium phosphate (pH 7.4), 15; EDTA, 2; ATP, 0.05; Mg^++, 2.5; triphosphates of CdR, deoxyguanosine, and AdR, 0.01 each; TdR triphosphate-^3 H, 0.01 (100 mCi/mmol.); DNase-treated E. coli DNA, 0.2 mg.; and cell sonicate, 0.2 mg. protein in a total volume of 0.5 ml. After incubation at 37° C for up to 60 minutes with continual gentle shaking, the reactions were stopped by the addition of carrier DNA […] and PCA (to 0.5 N) containing 2% Celite. The pellet was washed with PCA, dissolved in 1 N NaOH, reprecipitated and washed with PCA, extracted with 0.15 ml. 0.5 N PCA (70°) for 20 minutes, and counted in 12 ml. of Diotol.

Structure (SMILES)	% inhibition [1] [%]	% inhibition ([2]; 0.1 μmole/ml.) [%]	MIC [3] [µg/mL]	% inhibition [4] [%]	zone of inhibition at 250 µM [5] [mm]	% inhibition [6] [%]	% inhibition ([2]; 0.01 μmole/ml. (Streptovaricin C)) [%]
COC(=O)C(C(O)C(C)C=O)C(OC(C)=O)C(C)C(O)C(C)(O)C=C(C)C1=C2C(=C(C)C(=O)c3c(O)c(NC(=O)C(C)=CC=CC(C)=O)c(C)c(OC(C)=O)c32)OCO1 (centres unmarked) [Isostreptoval A]	7.8	21	80 (≈ 96.9 µM)	10.7	16		
COC(=O)C(C(O)C(C)C=O)C(O)C(C)C(O)C(C)(O)C=C(C)C1=C2C(=C(C)C(=O)c3c(O)c(NC(=O)C(C)=CC=CC(C)=O)c(C)c(OC(C)=O)c32)OCO1 (centres unmarked) [Isostreptoval G]		52					
CC(=O)C=CC=C(C)C(=O)Nc1c(C)c(OC(C)=O)c2c(c1O)C(=O)C(C)=C1OCOC(C(C)=CC(C)=O)=C12 [Prestreptovarone]	60.1	0				35.4	
COC(=O)C1C(OC(C)=O)C(C)C(O)OC1C(C)C(O)C(C)(O)C=CC=C(C)C(=O)Nc1c(C)c(OC(C)=O)c2c(c1O)C(=O)C(C)=C1OCOC(C(C)=CC(C)=O)=C12 (centres unmarked) [Streptoval A]	100.0	35	80 (≈ 96.9 µM)		17		
COC(=O)C1C(OC(C)=O)C(C)C(O)OC1C(C)C(O)C(C)C=CC=C(C)C(=O)Nc1c(C)c(OC(C)=O)c2c(c1O)C(=O)C(C)=C1OCOC(C(C)=CC(C)=O)=C12 (centres unmarked) [Streptoval B]	99.0						
COC(=O)C1C(OC(C)=O)C(C)C(OC(C)=O)OC1C(C)C(OC(C)=O)C(C)C=CC=C(C)C(=O)Nc1c(C)c(OC(C)=O)c2c(c1O)C(=O)C(C)=C1OCOC(C(C)=CC(C)=O)=C12 (centres unmarked) [Streptoval C Triacetate-A]	86.2						
COC(=O)C(C(OC(C)=O)C(C)C=O)C(OC(C)=O)C(C)C(OC(C)=O)C(C)C=CC=C(C)C(=O)Nc1c(C)c(OC(C)=O)c2c(c1O)C(=O)C(C)=C1OCOC(C(C)=CC(C)=O)=C12 (centres unmarked) [Streptoval C Triacetate-B]	97.3						
COC(=O)C1C(O)C(C)C(O)OC1C(C)C(O)C(C)C=CC=C(C)C(=O)Nc1c(C)c(OC(C)=O)c2c(c1O)C(=O)C(C)=C1OCOC(C(C)=CC(C)=O)=C12 (centres unmarked) [Streptoval C]	84.0			2.1	0	9.2	
COC(=O)C1C(O)C(C)C(O)OC1C(C)C(=O)C(C)C=CC=C(C)C(=O)Nc1c(C)c(OC(C)=O)c2c(c1O)C(=O)C(C)=C1OCOC(C(C)=CC(C)=O)=C12 (centres unmarked) [Streptoval E]	95.7	7	75 (≈ 97.9 µM)		0		
CC(=O)C=C(C)C1=C2C(=C(C)C(=O)c3c(O)c(NC(=O)C(C)=CC=CC(C)(O)C4OC(=O)C5C(O)C(C)C(O)OC5C4C)c(C)c(OC(C)=O)c32)OCO1 (centres unmarked) [Streptoval F]	8.3						
COC(=O)C1C(OC(C)=O)C(C)C(OC(C)=O)C(C)(O)C=CC=C(C)C(=O)Nc2c(C)c(OC(C)=O)c3c(c2O)C(=O)C(C)=C2OCOC(=C23)C(C)=CC(C)(O)C(OC(C)=O)C(C)C1OC(C)=O (centres unmarked) [Streptovaricin A Triacetate]	76.0						
COC(=O)C1C(OC(C)=O)C(C)C(OC(C)=O)C(C)C=CC=C(C)C(=O)Nc2c(C)c(OC(C)=O)c3c(c2O)C(=O)C(C)=C2OCOC(=C23)C(C)=CC(C)(O)C(OC(C)=O)C(C)C1OC(C)=O (centres unmarked) [Streptovaricin C Tetra-acetate]	80.0						
COC(=O)C1C(OC(C)=O)C(C)C(OC(C)=O)C(C)C=CC=C(C)C(=O)Nc2c(C)c(OC(C)=O)c3c(c2O)C(=O)C(C)=C2OCOC(=C23)C(C)=CC(C)(O)C(O)C(C)C1OC(C)=O (centres unmarked) [Streptovaricin C Triacetate]	79.0						
COC(=O)C1C(O)C(C)C(O)C(C)C=CC=C(C)C(=O)Nc2c(C)c(OC(C)=O)c3c(c2O)C(=O)C(C)=C2OCOC(=C23)C(C)=CC(C)(O)C(O)C(C)C1O (centres unmarked) [Streptovaricin C, reference compound]	47.9			8.9	22	0	66
CC(=O)C=C(C)C1=C2C(=C(C)C(=O)c3c(O)c(NC(=O)C(C)=O)c(C)c(OC(C)=O)c32)OCO1 [Streptovarone]	59.4	0		0.4	0	12.2	
